# Measurements: patent publication US6410561B1, “Amide derivatives and nociceptin antagonists” (Japan Tobacco Inc., priority 1998, dated 2002)
# Like-named read-outs stand apart in the source and are kept apart here.
# Experiments:
# allodynia model = test: Allodynia test (intrathecal nociceptin, tactile stimulation); assay type: in vivo, Mice; settings: Mus musculus, read-out: Allodynia M.E.D. (minimum effective dose)
# Experimental: Mice (Crj, ICR, 4-week-old, male) were intrathecally administered with nociceptin (50 pg/5 μl) without anesthesia. For 20 min after administration and at 5 min intervals, an area from lateral region to tail of the mice was rubbed with a brush and the response of the mice was observed. The evaluation followed the criteria of 0; no change, 1; run or cry upon tactile stimulation, and 2; cry loud or dash away upon tactile stimulation. The test compound was suspended in a 0.5% MC solution and orally administered 60 min before nociceptin administration. The significant difference of the score of each administration group at 20 min after nociceptin administration from the group administered with solvent was analyzed with Mann-Whitny U-test.
# Mice = test: Hot-plate test; assay type: in vivo; settings: Mus musculus, 1 h, oral, 60 min after administration, 55.5°C, read-out: Hot-plate M.E.D. (minimum effective dose)
# Experimental: Mice (Crj, ICR, 4-week-old, male) were placed on a hot-plate (temperature 55.5±0.5° C.) and the time until the mice jumped and tried to run away was recorded. The mice were grouped according to the time and body weight so that the groups were evenly membered. The test compound was suspended in a 0.5% methylcellulose (MC) solution and orally administered to mice. After 60 min, the mice were again placed on a hot-plate and the time until they licked the hindlimb or jumped and tried to run away was recorded. The significant difference from the group administered with solvent was analyzed with ANOVA followed by Dunnett two-tailed test.
# μ receptor = molecular target: T1, μ receptor (Rattus norvegicus, UniProt P33535); test: μ receptor binding assay ([3H]DAMGO); settings: for Ki: calculated from IC50 and Kd of [3H]DAMGO; for IC50: rat cerebrum membrane, [3H]DAMGO 1 nM
# T1 construct: Rat cerebrum membrane standard sample; from tissue; host or cells: rat cerebrum membranes
# T1 sequence (P33535 whole entry): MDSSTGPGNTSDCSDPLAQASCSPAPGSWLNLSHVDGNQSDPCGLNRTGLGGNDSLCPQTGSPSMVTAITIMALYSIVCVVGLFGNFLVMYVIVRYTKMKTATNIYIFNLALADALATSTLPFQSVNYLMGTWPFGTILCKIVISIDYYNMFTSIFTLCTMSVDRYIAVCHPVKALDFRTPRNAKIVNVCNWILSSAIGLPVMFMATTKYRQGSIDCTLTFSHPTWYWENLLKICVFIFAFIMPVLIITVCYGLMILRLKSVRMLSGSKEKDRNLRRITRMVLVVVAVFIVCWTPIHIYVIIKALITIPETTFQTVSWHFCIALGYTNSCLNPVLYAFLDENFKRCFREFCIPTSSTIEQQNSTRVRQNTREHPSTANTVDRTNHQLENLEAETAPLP
# Experimental: Rat cerebrum membrane standard sample (final concentration 0.755 mg·protein/ml), [^3H]DAMGO (Try-D-Ala-Gly-NMe-Phe-Gly-ol) [diluted with Tris buffer (50 mM Tris-HCl, 0.1 mM p-APMSF, 2 mg/ml BSA (pH=7.4)) to a final concentration of 1 nM] and test compound (diluted with Tris buffer to a final concentration of 10 nM-10 μM) were mixed, and the mixture was incubated at room temperature for 90 min. The membrane was recovered on a G/F-B filter (same as above) using a cell harvester and the reaction was stopped. After washing 3 times, the filter was dried at 42° C. for 1 hr. A scintillation solution (same as above) was added and the radioactivity (same as above) was assayed.
# (§1) The nonspecific binding was the binding in the presence of 10 μM naloxone and the difference between the total binding and nonspecific binding was taken as the specific binding. IC50 was calculated from inhibition of specific binding at each concentration of the compound, and Ki value of the test compound was calculated from this value and Kd value of [^3H]DAMGO.
# ORL-1 receptor = molecular target: T2, ORL-1 receptor (Homo sapiens, UniProt P41146); test: ORL1 receptor binding assay ([3H]nociceptin); settings: for IC50: membrane of human ORL-1 expression cells, [3H]nociceptin 0.5 nM; for Ki: calculated from IC50 and Kd of [3H]nociceptin
# T2 construct: expressed in transfected cells
# T2 sequence (P41146 whole entry): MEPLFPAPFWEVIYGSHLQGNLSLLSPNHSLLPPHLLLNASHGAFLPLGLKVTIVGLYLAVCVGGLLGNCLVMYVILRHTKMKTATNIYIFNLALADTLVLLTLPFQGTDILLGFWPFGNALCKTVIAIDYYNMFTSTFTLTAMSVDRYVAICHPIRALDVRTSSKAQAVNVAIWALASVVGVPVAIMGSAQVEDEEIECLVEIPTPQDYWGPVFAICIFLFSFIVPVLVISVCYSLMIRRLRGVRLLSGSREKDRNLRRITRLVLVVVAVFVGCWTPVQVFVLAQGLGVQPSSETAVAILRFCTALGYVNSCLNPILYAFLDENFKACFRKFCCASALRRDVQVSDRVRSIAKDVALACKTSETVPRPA
# Experimental: ORL1 Receptor Binding Assay
# A cell membrane suspension obtained from human ORL-1 expression cells was adjusted with Tris buffer [50 mM Tris, 2 mM EDTA, 0.1 mM (p-Amidinophenyl)methanesulfonyl Fluoride Hydrochloride (p-APMSF), 2 mg/ml BSA] to membrane protein amount of about 25 μg/ml (2.5 μg/well). This was mixed with [^3H]nociceptin (diluted with Tris buffer to a final concentration of 0.5 nM) and test compound (diluted with Tris buffer to a final concentration of 10 nM-10 μM), and the mixture was incubated at room temperature for 60 min. The membrane was recovered on a G/F-B filter (Packard, Unifilter 96GF/B) using a cell harvester and the reaction was stopped. After washing 3 times, the filter was dried at 42° C. for 1 hr. A scintillation solution (Packard, microscint-20) was added and the radioactivity (Packard, Top count A9912V) was assayed.
# as §1, with “1” for “10”, “nociceptin” for “naloxone”, “[^3H]nociceptin.” for “[^3H]DAMGO.”
# [1] = mice, oral, 60 min before nociceptin 50 pg i.t., score at 20 min
SMILES,Ki (μ receptor),IC50 (μ receptor),melting point,IC50 (ORL-1 receptor),Ki (ORL-1 receptor),minimal effective dose (allodynia model; po),minimal effective dose (Mice),minimal effective dose (allodynia model; [1])
"Cc1ccc(OCc2ccccc2C(=O)Nc2ccc3nc(C)cc(N)c3c2)cc1.Cl [Example 17, N-(4-amino-2-methyl-6-quinolyl)-2-[(4-methylphenoxy)methyl]benzamide hydrochloride]",385 nM,1020 nM,255 °C,130 nM,–,0.3 mg/kg,1 mg/kg,–
"Cc1cc(N)c2cc(NC(=O)c3ccccc3COc3cccc([N+](=O)[O-])c3)ccc2n1.Cl [Example 19, N-(4-amino-2-methyl-6-quinolyl)-2-[(3-nitrophenoxy)methyl]benzamide hydrochloride]",388 nM,1030 nM,245 °C,160 nM,9 nM,–,3 mg/kg,0.1 mg/kg
"CCc1ccc(OCc2ccccc2C(=O)Nc2ccc3nc(C)cc(N)c3c2)c(Cl)c1.Cl [Example 89, N-(4-amino-2-methyl-6-quinolyl)-2-[(2-chloro-4-ethylphenoxy)methyl]benzamide hydrochloride]",548 nM,1460 nM,245.9 °C,130 nM,6 nM,–,1 mg/kg,0.3 mg/kg

# The remaining compounds from weak to strong by Ki (μ receptor), led by results:
Ki (μ receptor),IC50 (μ receptor),melting point,IC50 (ORL-1 receptor),Ki (ORL-1 receptor),SMILES,minimal effective dose (allodynia model; po),minimal effective dose (Mice),minimal effective dose (allodynia model; [1])
479 nM,1220 nM,223 °C,80 nM,4 nM,"Cc1cc(N)c2cc(NC(=O)c3ccccc3COc3ccc(Cl)c(Cl)c3)ccc2n1.Cl [Example 26, N-(4-amino-2-methyl-6-quinolyl)-2-[(3,4-dichlorophenoxy)methyl]benzamide hydrochloride]",–,1 mg/kg,0.3 mg/kg
419 nM,1110 nM,285 °C,2520 nM,129 nM,COc1ccc(CCc2ccccc2C(=O)Nc2ccc3nc(C)cc(N)c3c2)cc1.Cl [Example 84],–,> 10 mg/kg,< 3 mg/kg
414 nM,1050 nM,268 °C,160 nM,9 nM,"Cc1cc(N)c2cc(NC(=O)c3ccccc3COc3ccc(C(C)(C)C)cc3)ccc2n1.Cl [Example 29, N-(4-amino-2-methyl-6-quinolyl)-2-[(4-tert-butylphenoxy)methyl]benzamide hydrochloride]",–,3 mg/kg,> 0.3 mg/kg
